Test results reported in ChEMBL document CHEMBL4765384, “Development of a metabolically stable topoisomerase I poison as anticancer agent” (Eur J Med Chem, 2020).
≈ marks a conversion by molar mass, not a printed value.

Assays:
[1] = Stability in human liver microsomes assessed as parent compound remaining after 60 mins by LC-MS/MS analysis; format: ADME, Microsome; settings: read-out: Stabilty
[2] = Intrinsic clearance in human liver microsomes after 60 mins in presence of cofactor by LC-MS/MS analysis; format: ADME, Microsome; settings: 1 h
[3] = Stability in human liver microsomes assessed as parent compound remaining after 60 mins in presence of cofactor by LC-MS/MS analysis; format: ADME, Microsome; settings: read-out: Stabilty
[4] = Half life in human liver microsomes by LC-MS/MS analysis; format: ADME, Microsome
[5] = Aqueous solubility of compound; format: physicochemical
[6] = Lipophilicity, logD of the compound at pH 7.4; format: physicochemical; settings: buffer
[7] = Stability in human plasma assessed as parent compound remaining after 2 hrs; format: ADME, cell-free; settings: read-out: Stabilty
DNA topoisomerase 1 [8] = molecular target: T1, DNA topoisomerase 1 (Homo sapiens, UniProt P11387); test: Inhibition of recombinant human Top1 expressed in baculovirus infected sf9 insect cells using supercoiled pBS (SK+) DNA as substrate incubated for 30 mins by ethidium bromide staining based agarose gel electrophoresis analysis
T1 sequence (P11387 whole entry): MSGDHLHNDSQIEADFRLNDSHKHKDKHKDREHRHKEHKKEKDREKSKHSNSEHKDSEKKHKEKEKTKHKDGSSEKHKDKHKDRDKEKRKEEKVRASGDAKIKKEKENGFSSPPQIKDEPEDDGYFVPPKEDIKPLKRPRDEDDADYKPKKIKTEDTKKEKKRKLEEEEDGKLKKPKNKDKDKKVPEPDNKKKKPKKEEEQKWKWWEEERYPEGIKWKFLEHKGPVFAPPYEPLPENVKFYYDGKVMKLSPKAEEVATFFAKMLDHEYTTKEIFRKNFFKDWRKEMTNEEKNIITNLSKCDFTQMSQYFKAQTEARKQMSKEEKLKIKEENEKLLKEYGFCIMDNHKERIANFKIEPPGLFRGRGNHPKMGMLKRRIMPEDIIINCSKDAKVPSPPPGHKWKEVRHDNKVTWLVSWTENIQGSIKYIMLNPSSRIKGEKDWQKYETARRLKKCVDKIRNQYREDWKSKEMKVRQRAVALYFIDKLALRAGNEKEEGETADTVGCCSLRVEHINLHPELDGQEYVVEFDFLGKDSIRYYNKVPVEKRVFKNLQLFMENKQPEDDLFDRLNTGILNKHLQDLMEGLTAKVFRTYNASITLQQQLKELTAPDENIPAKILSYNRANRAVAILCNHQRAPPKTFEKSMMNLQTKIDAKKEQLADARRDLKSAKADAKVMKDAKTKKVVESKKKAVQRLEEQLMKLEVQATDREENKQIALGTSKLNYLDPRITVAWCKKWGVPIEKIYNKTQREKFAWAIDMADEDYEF

HEK293 = test: Cytotoxicity against HEK293 cells assessed as reduction in cell viability after 48 hr by MTT assay; format: cell-based; settings: Homo sapiens, HEK293, 48 h
MCF7 = test: Cytotoxicity against human MCF7 cells assessed as reduction in cell viability after 48 hr by MTT assay; format: functional, cell-based; settings: MCF7, 48 h
DNA topoisomerase 1 [9] = molecular target: T1, DNA topoisomerase 1; test: Inhibition of Top1 in human MCF7 cells using supercoiled pBS (SK+) DNA as substrate incubated for 30 mins by ethidium bromide staining based agarose gel electrophoresis analysis; format: cell-based

Compound	remaining at 1 h [1] [%]	CLH [2] [µL/min/mg]	remaining at 1 h [3] [%]	half-life [4] [min]	remaining at 2 h [7] [%]	IC50 (DNA topoisomerase 1 [8]) [µM]	IC50 (HEK293) [µM]	also measured
COc1ccc(-c2ccc3ncc(-c4nnco4)c(NCCCn4ccnc4)c3c2)cc1	1.68	69.7	112	9.94				
Cc1ccc(-c2ccc3ncc(-c4nnco4)c(NCCCn4ccnc4)c3c2)cc1	0	89.3	93	7.77	90.8			solubility [5]: 0.3 µg/mL (≈ 0.731 µM); logD [6]: > 3.5
COc1ccc(-c2ccc3ncc(-c4nnco4)c(NCCCN4CCCC4)c3c2)cc1						> 10		
Nc1ccc(-c2ccc3ncc(-c4nnco4)c(NCCCn4ccnc4)c3c2)cc1	53.7	10	93.8	69.1	91.3		> 10	IC50 (MCF7): 2.5 µM; IC50 (DNA topoisomerase 1 [9]): 2.5 µM
COc1ccc(-c2ccc3ncc(-c4nnco4)c(NCCCn4cccc4)c3c2)cc1						> 10		
CC[C@@]1(O)C(=O)OCc2c1cc1n(c2=O)Cc2cc3ccccc3nc2-1 [CAMPTOTHECIN]							8.75	
